Columns and labels:
[1] = Acute porcine cardiopulmonary bypass (CPB) model, postoperative bleeding; type: in vivo; conditions: pigs
Procedure: A randomized, double-blinded study using an acute porcine cardiopulmonary bypass (CPB) model was used to investigate the effect of KPI185-1 on postoperative bleeding. Sixteen pigs (55-65 kg) underwent 60 minutes of hypothermic (28° C.) open-chest CPB with 30 minutes of cardioplegic cardiac arrest. Pigs were randomized against a control solution of physiological saline (NS; n=8) or KPI-185 (n=8) groups. During aortic cross-clamping, the tricuspid valve was inspected through an atriotomy which was subsequently repaired. Following reversal of heparin with protamine, dilateral thoracostomy tubes were placed and shed blood collected for 3 hours. Shed blood volume and hemoglobin (Hgb) loss were calculated from total chest tube output and residual intrathoracic blood at time of sacrifice.

[2] = test system: elastase; conditions: cited from earlier work
[3] = CPB; cited from earlier work
[4] = target: T1, activated factor XII (Homo sapiens, UniProt P00748); conditions: cited from earlier work
T1 sequence (P00748 373-615 limits assumed): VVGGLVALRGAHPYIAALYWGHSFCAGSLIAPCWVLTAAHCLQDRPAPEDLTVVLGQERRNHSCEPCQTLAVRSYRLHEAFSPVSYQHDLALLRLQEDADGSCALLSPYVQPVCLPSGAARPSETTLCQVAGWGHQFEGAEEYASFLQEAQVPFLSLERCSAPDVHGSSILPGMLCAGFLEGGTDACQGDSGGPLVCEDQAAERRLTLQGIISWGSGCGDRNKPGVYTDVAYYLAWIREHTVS

| Substance | Total Hgb loss ([1]; after CPB, p=0.0005 vs. saline) | Thoracostomy drainage Hgb ([1]; at 30 minutes, p=0.004 vs. control) | Thoracostomy drainage Hgb ([1]; at 60 minutes, p=0.0002 vs. control) | Total blood loss ([1]; shed blood collected for 3 hours after CPB plus residual intrathoracic blood, p=0.009 vs. saline) | inhibition of elastase [2] | blood loss following bypass [3] | neutrophil activation [3] | inhibition of activated factor XII [4] |
| --- | --- | --- | --- | --- | --- | --- | --- | --- |
| KPI (−4→57; M15A, S17F) DD185: KPI (−4→57) variant with M15A, S17F, found by phage display on kallikrein, expressed in yeast from pDD185 | 13.59±4.26 gm | 4.41±1.45 gm/dl | 5.26±1.04 gm/dl | 245.75 ± 66.24 mL | – | – | – | – |
| aprotinin | – | – | – | – | neither native aprotinin nor native KPI significantly inhibits elastase | significant reduction in blood loss | does not appear to significantly reduce neutrophil activation | does not inhibit activated factor XII |
